# PubChem BioAssay (NCI)
#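 GI50 is the concentration that inhibits growth by half. TGI: concentration producing complete growth inhibition.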
# Legend:
# Assay in all cases: DTP human tumour cell line panel, 384-well format
# [1] = system: MDA-MB-435 melanoma
# [2] = system: SK-OV-3 ovarian
# [3] = system: OVCAR-3 ovarian
# [4] = system: BT-549 breast
# [5] = system: MDA-MB-468 breast
# [6] = system: NCI-H322M lung
# [7] = system: HL-60(TB) leukemia
# [8] = system: UACC-257 melanoma
# [9] = system: HCC-2998 colon
# [10] = system: A549 NSCLC
# [11] = system: NCI-H23 lung
# [12] = system: U251 glioblastoma
# [13] = system: 786-0 renal
# [14] = system: HT29 colon
# [15] = system: IGROV1 ovarian
# [16] = system: HOP-62 NSCLC
# [17] = system: MOLT-4 leukemia
# [18] = system: ACHN renal
# [19] = system: SN12C renal
# [20] = system: SF-268 CNS
# [21] = system: NCI-H226 lung
# [22] = system: KM12 colon
# [23] = system: OVCAR-5 ovarian
# [24] = system: LOX IMVI melanoma
# [25] = system: K-562 leukemia
# [26] = system: CAKI-1 renal
# [27] = system: DU-145 prostate
# [28] = system: SR leukemia
# [29] = system: RPMI-8226 leukemia
# [30] = system: PC-3 prostate
# [31] = system: EKVX NSCLC
# [32] = system: TK-10 renal
# [33] = system: UACC-62 melanoma
# [34] = system: SW-620 colon
# [35] = system: RXF 393 renal
# [36] = system: A498 renal
# [37] = system: SNB-75 CNS
# [38] = system: SK-MEL-28 melanoma
# [39] = system: M14 melanoma
# [40] = system: OVCAR-8 ovarian
# [41] = system: NCI-H460 NSCLC
# [42] = system: MDA-MB-231 breast
# [43] = system: HS 578T breast
# [44] = system: MALME-3M melanoma
# [45] = system: COLO 205 colon
# [46] = system: SF-295 CNS
# [47] = system: HOP-92 NSCLC
# [48] = system: OVCAR-4 ovarian
# [49] = system: T-47D breast
# [50] = system: SK-MEL-5 melanoma
# [51] = system: HCT-15 colon
# [52] = system: MCF7 breast
# [53] = system: SNB-19 CNS
# [54] = system: UO-31 renal
# [55] = system: NCI-H522 lung
# [56] = system: NCI/ADR-RES ovarian
# [57] = system: SF-539 CNS
smiles,measurement,setting,value
C[C@@]1(C(=O)Nc2ccc(F)nc2)CCCN1c1nc(Nc2cc(C3CC3)[nH]n2)c2cccn2n1,GI50,[1],14.4 µM
same,TGI,[1],27.6 µM
same,GI50,[2],2.69 µM
same,TGI,[2],14 µM
same,GI50,[3],0.842 µM
same,TGI,[3],9.82 µM
same,GI50,[4],1.71 µM
same,TGI,[4],7.62 µM
same,GI50,[5],0.246 µM
same,TGI,[5],0.561 µM
same,GI50,[6],3.87 µM
same,TGI,[6],20.1 µM
same,GI50,[7],< 0.01 µM
same,TGI,[7],0.126 µM
same,GI50,[8],0.694 µM
same,TGI,[8],16.4 µM
same,GI50,[9],10.6 µM
same,TGI,[9],22.7 µM
same,GI50,[10],0.63 µM
same,TGI,[10],15.4 µM
same,GI50,[11],0.223 µM
same,TGI,[11],3.87 µM
same,GI50,[12],5.48 µM
same,TGI,[12],19.4 µM
same,GI50,[13],2.12 µM
same,TGI,[13],11.3 µM
same,GI50,[14],< 0.01 µM
same,TGI,[14],10.5 µM
same,GI50,[15],1.72 µM
same,TGI,[15],7.19 µM
same,GI50,[16],1.87 µM
same,TGI,[16],13.2 µM
same,GI50,[17],0.224 µM
same,TGI,[17],0.439 µM
same,GI50,[18],2.43 µM
same,TGI,[18],16 µM
same,GI50,[19],2.07 µM
same,TGI,[19],6.96 µM
same,GI50,[20],1.44 µM
same,TGI,[20],6.55 µM
same,GI50,[21],0.557 µM
same,TGI,[21],7.05 µM
same,GI50,[22],0.03 µM
same,TGI,[22],0.204 µM
same,GI50,[23],1.5 µM
same,TGI,[23],8.62 µM
same,GI50,[24],1.93 µM
same,TGI,[24],13 µM
same,GI50,[25],3.81 µM
same,TGI,[25],15.4 µM
same,GI50,[26],1.3 µM
same,TGI,[26],5.28 µM
same,GI50,[27],0.995 µM
same,TGI,[27],12.5 µM
same,GI50,[28],0.18 µM
same,TGI,[28],0.336 µM
same,GI50,[29],0.201 µM
same,TGI,[29],0.491 µM
same,GI50,[30],2.67 µM
same,TGI,[30],14.4 µM
same,GI50,[31],0.681 µM
same,TGI,[31],9.59 µM
same,GI50,[32],2.49 µM
same,TGI,[32],20.1 µM
same,GI50,[33],1.75 µM
same,TGI,[33],15.7 µM
same,GI50,[34],0.644 µM
same,TGI,[34],14.4 µM
same,GI50,[35],2.25 µM
same,TGI,[35],12.7 µM
same,GI50,[36],1.72 µM
same,TGI,[36],17.1 µM
same,GI50,[37],1.14 µM
same,TGI,[37],3.57 µM
same,GI50,[38],10.6 µM
same,TGI,[38],22.7 µM
same,GI50,[39],1.7 µM
same,TGI,[39],16.8 µM
same,GI50,[40],4.09 µM
same,TGI,[40],18.7 µM
same,GI50,[41],0.239 µM
same,TGI,[41],1.17 µM
same,GI50,[42],1.58 µM
same,TGI,[42],12.5 µM
same,GI50,[43],1.51 µM
same,TGI,[43],3.8 µM
same,GI50,[44],0.356 µM
same,TGI,[44],16.6 µM
same,GI50,[45],< 0.01 µM
same,TGI,[45],0.189 µM
same,GI50,[46],0.837 µM
same,TGI,[46],4.19 µM
same,GI50,[47],0.289 µM
same,TGI,[47],2.68 µM
same,GI50,[48],0.935 µM
same,TGI,[48],4.21 µM
same,GI50,[49],0.651 µM
same,TGI,[49],14.3 µM
same,GI50,[50],1.78 µM
same,TGI,[50],15.9 µM
same,GI50,[51],0.703 µM
same,TGI,[51],12.2 µM
same,GI50,[52],0.0388 µM
same,TGI,[52],12.4 µM
same,GI50,[53],8.33 µM
same,TGI,[53],29.3 µM
same,GI50,[54],3.75 µM
same,TGI,[54],18.2 µM
same,GI50,[55],0.864 µM
same,TGI,[55],7.46 µM
same,GI50,[56],2.36 µM
same,TGI,[56],10.7 µM
same,GI50,[57],1.91 µM
same,TGI,[57],11 µM
